From patent publication US20220265591A1, “USE OF AN OSMOLYTE IN MANUFACTURE OF A MEDICAMENT FOR TREATMENT OF OCULAR DISORDERS” (SINGAPORE HEALTH SERVICES PTELTD, priority 2019, published 2022)
Entries after “also recorded” stand apart in the source; their conditions may differ. Like-named read-outs stand apart in the source and are kept apart here.

Legend:
[1] = molecular target: T1, preformed amyloid fibrils from TGFBIp611-633 G623R peptide (Homo sapiens, UniProt Q15582, G623R); assay: ThT fluorescence assay, dissolution of preformed amyloid fibrils; type: biochemical; conditions: for inhibition at 200000 µM: preformed fibrils, read-out: % Inhibition (mean ± SD) n = 3, dissolution of amyloid fibrils, ThT fluorescence; for % Dissolution at final time point, ThT: TGFBIp-G623R preformed fibrils
T1 construct: The 23-amino acid long peptide (TGFBIp 611-633 c.623 G>R) from the 4th FAS1 domain; purchased Synpeptide Co Ltd, Shanghai, China; host or cells: synthetic peptide
Protocol: The TGFBIp^611-633 G623R peptides were incubated in PBS for 24 hours, allowed to form uniform amyloid fibrils. The TGFBIp^611-633 G623R peptide solution was then subjected to Circular Dichroism spectroscopy to confirm the formation of amyloid fibrils.
The preformed amyloid fibril solution incubated with PBS was used as a control.
The peptide samples collected at the various time points above were treated with 30 μM ThT in PBS buffer at pH 5.5 in a 96-well microplate for ThT fluorescence assay. The microplate was excited at […] and the resulting emission fluorescence at 485 nm was measured using a microplate reader (Tecan Infinite M200 Pro, CA, USA).
The preformed amyloid fibrils were treated with taurine at a concentration of 200 mM and 320 mM for up to 72 hours, respectively. The preformed amyloid fibrils incubated with PBS were used as controls.
The samples were collected at 24 h, 48 h and 72 h after treatment for the TGFBIp^611-633 G623R peptides, and at 24 h, 48 h, 96 h and 144 h after treatment for the TGFBIp^611-633 N622K peptides. The samples were then treated with 30 μM ThT in PBS buffer at pH 5.5 in a 96-well microplate for ThT fluorescence assay. The microplate was excited at 445 nm and the resulting emission fluorescence at 485 nm was measured using a microplate reader.

[2] = molecular target: T2, TGFBIp611-633 G623R peptide (Homo sapiens, UniProt Q15582, G623R); assay: Circular Dichroism assay (θ[218]), inhibition of amyloid fibrillation; type: biochemical
T2 construct: The 23-amino acid long peptide (TGFBIp 611-633 c.623 G>R) from the 4th FAS1 domain; purchased Synpeptide Co Ltd, Shanghai, China; host or cells: synthetic peptide
Protocol: The peptide samples were collected 0.1 cm path length quartz cuvettes and examined in a Chirascan™-plus Spectropolarimeter (Applied Photophysics Limited, UK). Spectra were recorded from 260 nm to 190 nm in 0.1 nm steps at a scan rate of 50 nm/min. The final spectrum was the average of three scans as per the manufacturer's recommendation. The Mean Residual Weight (MRW) ellipticity ([θ]mrw values) at wavelength λ was calculated using the following equation (i): […]
whereby θλ is the observed ellipticity at a particular wavelength (degrees), I is the path length (cm), and c is the concentration (g/ml). Secondary structures of the protein were analyzed using CDNN software.
The θ[218] values that determine the β-sheet secondary structure were used to calculate the percentage inhibition in cross β-sheet in the untreated and osmolyte-treated peptide samples at various time points. Percentage inhibition for each osmolyte treatment per time point was calculated by normalizing the [θ]218 values of osmolyte treatment with the [θ]218 values of the untreated samples and expressed as a percentage.
Circular Dichroism (CD) spectroscopy was performed to study the changes in the secondary structure of the peptides. The TGFBIp^611-633 G623R peptides were treated with 200 mM and 320 mM of taurine in PBS buffer at pH 7.0 for 24 h, 48 h and 72 h, respectively. While the TGFBIp^611-633 N622K peptides were treated with 200 mM and 320 mM of taurine in PBS buffer at pH 7.0 for 72 h, 96 h, 120 h, 144 h, 192 h, 216 h, and 240 h, respectively. The treatment solutions were studied by far UV-CD assay.

[3] = molecular target: T3, TGFBIp 611-633 c.623 G>R fibrils (Homo sapiens, UniProt Q15582, G623R); assay: Transmission Electron Microscopy of preformed fibrils; conditions: 72 hours treatment
T3 construct: The 23-amino acid long peptide (TGFBIp 611-633 c.623 G>R) from the 4th FAS1 domain; purchased Synpeptide Co Ltd, Shanghai, China; host or cells: synthetic peptide
Protocol: The disaggregation of preformed amyloid fibrils was also verified by TEM analysis as illustrated in FIG. 8B. Morphological analysis of the TGFBIp 611-633 c.623 G>R fibrils before and after treatment with osmolytes for 72 hours was investigated by Transmission electron microscopy (TEM) with a JEOL JEM-1010 transmission electron microscope using Digital Micrograph™ 1.81.78 for GMS 1.8.0 (Gatan, Pleasanton, Calif.) at the Singhealth-core Electron Microscopy facility. 10 μl of amyloid fibril samples with and without osmolyte treatment were applied onto Formvar-carbon coated 300-mesh-size nickel grids. The samples were stained with Uranyl acetate solution, washed, dried, and observed at magnifications 8000-50000× at 80 kV.

[4] = 200 mM, 24 h, read-out: % Inhibition (mean ± SD) n = 3, θ[218] circular dichroism
[5] = 200 mM, 48 h, read-out: % Inhibition (mean ± SD) n = 3, θ[218] circular dichroism
[6] = 200 mM, 72 h, read-out: % Inhibition (mean ± SD) n = 3, θ[218] circular dichroism

T1 sequence (Q15582 611-633 G623R limits assumed): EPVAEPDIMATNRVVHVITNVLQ

C[N+](C)(C)CC(=O)O [Betaine, betaine]
inhibition at 200000 µM ([1]; 200 mM, 24 h): 4 ± 3% | inhibition at 200000 µM ([1]; 200 mM, 48 h): 34 ± 11% | inhibition at 200000 µM ([1]; 200 mM, 72 h): 37 ± 17% | inhibition at 200000 µM [2, 4]: 8% | inhibition at 200000 µM [2, 5]: 19% | inhibition at 200000 µM [2, 6]: 34% | TEM morphology of fibrils [3]: reduction in density of ordered amyloid fibrils was evident

OC[C@H]1O[C@H](OC[C@H]2O[C@H](O[C@]3(CO)O[C@H](CO)[C@@H](O)[C@@H]3O)[C@H](O)[C@@H](O)[C@@H]2O)[C@H](O)[C@@H](O)[C@H]1O [Raffinose, raffinose]
inhibition at 200000 µM ([1]; 200 mM, 24 h): 14 ± 4% | inhibition at 200000 µM ([1]; 200 mM, 48 h): 48 ± 6% | inhibition at 200000 µM ([1]; 200 mM, 72 h): 64% | inhibitory effect on fibrillation compared among the four osmolytes, CD ([2]; 200 mM): maximum inhibition; also recorded: maximum inhibitory effect | inhibition at 200000 µM [2, 4]: 19% | inhibition at 200000 µM [2, 5]: 23% | inhibition at 200000 µM [2, 6]: 57% | TEM morphology of fibrils [3]: reduction in density of ordered amyloid fibrils was evident

CNCC(=O)O [Sarcosine, sarcosine]
inhibition at 200000 µM ([1]; 200 mM, 24 h): 24 ± 3% | inhibition at 200000 µM ([1]; 200 mM, 48 h): 47 ± 4% | inhibition at 200000 µM ([1]; 200 mM, 72 h): 53 ± 3% | inhibitory effect on fibrillation compared among the four osmolytes, CD ([2]; 200 mM): maximum inhibition | inhibition at 200000 µM [2, 4]: ~17% | inhibition at 200000 µM [2, 5]: ~43% | inhibition at 200000 µM [2, 6]: ~57% | TEM morphology of fibrils [3]: reduction in density of ordered amyloid fibrils was evident

NCCS(=O)(=O)O [Taurine, taurine]
inhibition at 200000 µM ([1]; 200 mM, 24 h): 23 ± 1% | inhibition at 200000 µM ([1]; 200 mM, 48 h): 52 ± 5% | inhibition at 200000 µM ([1]; 200 mM, 72 h): 61% | % Dissolution at final time point, ThT ([1]; 200 mM): 63% | % Dissolution at final time point, ThT ([1]; 200 mM, listed as taurine): 64% | % Dissolution at final time point, ThT ([1]; 320 mM): 83% | % Dissolution at final time point, ThT ([1]; 320 mM, listed as taurine): 83% | inhibition at 200000 µM [2, 4]: ~25% | inhibition at 200000 µM [2, 5]: ~54% | inhibition at 200000 µM [2, 6]: ~56% | % Inhibition at final time point, CD ([2]; TGFBIp-G623R, 200 mM, final time point): 42% | inhibition at 200000 µM ([2]; TGFBIp-G623R, 200 mM, final time point, read-out: % Inhibition at final time point, CD): 41% | % Inhibition at final time point, CD ([2]; TGFBIp-G623R, 320 mM, final time point): 63% | inhibition at 320000 µM ([2]; TGFBIp-G623R, 320 mM, final time point, read-out: % Inhibition at final time point, CD): 61% | TEM morphology of fibrils [3]: reduction in density of ordered amyloid fibrils was evident
